According to BigSolDB 2.1:

O=C1NS(=O)(=O)c2ccccc21
solubility (mole fraction)
Conditions | 293.15 K | 298.15 K | 303.15 K | 308.15 K | 313.15 K | 318.15 K | 323.15 K
in acetonitrile | 0.00739 | 0.00809 | 0.00936 | 0.0105 | 0.012 | 0.0143 | 0.0157
in ethanol | 0.00821 | 0.00924 | 0.0108 | 0.0121 | 0.0144 | 0.0169 | 0.0196
in isopropanol | 0.00792 | 0.00942 | 0.011 | 0.013 | 0.016 | 0.0193 | 0.0231
in methanol | 0.00927 | 0.0102 | 0.012 | 0.0136 | 0.0161 | 0.0187 | 0.0218
